From patent publication US7071225B2, “Arylaminopropane analogues and their use for the treatment of glaucoma” (Alcon, Inc., priority 2001, dated 2006)
Counter-ions that a name gives are not always drawn. Like-named read-outs stand apart in the source and are kept apart here.

Legend:
[1] = monkey; Wang et al. 1997/1998; attributed to α1A receptor activity; cited from earlier work
[2] = biological target: T1, 5-HT2a (Rattus norvegicus, UniProt P14842); experiment: 5-HT2 functional assay: [Ca2+]i mobilization (FLIPR) in A7r5 cells; format: cell-based; settings: for Emax: read-out: FLIPR 5-HT2a % Emax A7r5 Ca + 2
T1 construct: endogenous in cells; host or cells: A7r5 rat vascular smooth muscle cells
Protocol: The receptor-mediated mobilization on intracellular calcium ([Ca^2+]i) was studied using the Fluorescence Imaging Plate Reader (FLIPR) instrument. Rat vascular smooth muscle cells, A7r5, were grown in a normal media of DMEM/10% FBS and 10 μg/mL gentamycin. Confluent cell monolayers were trypsinized, pelleted, and re-suspended in normal media. Cells were seeded in a 50 μL volume at a density of 20,000 cells/well in a black wall, 96-well tissue culture plate and grown for 2 days.
On the day of the experiment, one vial of FLIPR Calcium Assay Kit dye was re-suspended in 50 mL of a FLIPR buffer consisting of Hank's Balanced Salt Solution (HBSS), 20 mM HEPES, and 2.5 mM probenecid, pH 7.4. Cells were loaded with the calcium-sensitive dye by addition of an equal volume ([…]) to each well of the 96-well plate and incubated with dye for 1 h at 23° C.
Typically, test compounds were stored at 25 μM in 50% DMSO/50% Ethanol solvent. Compounds were diluted 1:50 in 20% DMSO/20% Ethanol. For “hit” screening, compounds were further diluted 1:10 in FLIPR buffer and tested at a final concentration of 10 μM. For dose-response experiments, compounds were diluted 1:50 in FLIPR buffer and serially diluted 1:10 to give a 5- or 8-point dose-response curve.
The compound plate and cell plate were placed in the FLIPR instrument. At the beginning of an experimental run, a signal test was performed to check the basal fluorescence signal from the dye-loaded cells and the uniformity of the signal across the plate. The basal fluorescence was adjusted between 8000–12000 counts by modifying the exposure time, the camera F-stop, or the laser power. Instrument settings for a typical assay were the following: laser power 0.3–0.6 W, camera F-stop F/2, and exposure time 0.4 sec. An aliquot (25 μL) of the test compound was added to the existing 100 μL dye-loaded cells at a dispensing speed of 50 μL/sec. Fluorescence data were collected in real-time at 1.0 sec intervals for the first 60 secs and at 6.0 sec intervals for an additional 120 secs. Responses were measured as peak fluorescence intensity minus basal and where appropriate were expressed as a percentage of a maximum 5-HT-induced response.

[3] = biological target: T2, 5-HT2 receptor (Rattus norvegicus, UniProt P14842); experiment: 5-HT2 functional assay: phosphoinositide (PI) turnover in A7r5 cells; format: cell-based; parameters: [^3H]myo-inositol-labeled A7r5 rat vascular smooth muscle cells; endogenous in cells; host or cells: A7r5 rat vascular smooth muscle cells
Protocol: The relative agonist activity of serotonergic compounds at the 5-HT2 receptor can be determined in vitro using the ability of the compounds to stimulate the production of [^3H]inositol phosphates in [^3H]myo-inositol-labeled A7r5 rat vascular smooth muscle cells by their ability to activate the enzyme phospholipase C. These cells are grown in culture plates, maintained in a humidified atmosphere of 5% CO2 and 95% air and fed semi-weekly with Dulbecco's modified Eagle medium (DMEM) containing 4.5 g/L glucose and supplemented with 2 mM glutamine, 10 μg/ml gentamicin, and 10% fetal bovine serum. For the purpose of conducting the phosphoinositide (PI) turnover experiments, the A7r5 cells are cultured in 24-well plates as previously [J. Pharmacol. Expt. Ther. 286, 411 (1998)]. Confluent cells are exposed for 24–30 hrs to 1.5 μCi [^3H]-myo-inositol (18.3 Ci/mmol) in 0.5 ml of serum-free medium. Cells are then rinsed once with DMEM/F-12 containing 10 mM LiCl prior to incubation with the test agent (or solvent as the control) in 1.0 mL of the same medium for 1 hr at 37° C., after which the medium is aspirated and 1 ml of cold 0.1 M formic acid added to stop the reaction. The chromatographic separation of [^3H]-inositol phosphates ([^3H]-IPs) on an AG-1-X8 column is performed as previously described [J. Pharmacol. Expt. Ther. 286, 411 (1998)] with sequential washes with H2O and 50 mM ammonium formate, followed by elution of the total [^3H]-IPs fraction with 1.2 M ammonium formate containing 0.1 M formic acid. The eluate (4 mL) is collected, mixed with 15 ml scintillation fluid, and the total [^3H]-IPs determined by scintillation counting on a beta-counter. Concentration-response data are analyzed by the sigmoidal fit function of the Origin Scientific Graphics software (Microcal Software, Northampton, Mass.) to determine agonist potency (EC50 value) and efficacy (Emax).

[4] = biological target: T2, 5-HT2 receptor; experiment: 5-HT2 receptor binding assay ([125I]DOI competition, cerebral cortex homogenates); settings: 5-point, read-out: Rat Cerebral Cortex 5-HT2 IC50 5-pt (DOI)
Protocol: The assay mixture is incubated for 1 hour at 23° C. in polypropylene tubes and the assays terminated by rapid vacuum filtration over Whatman GF/B glass fiber filters previously soaked in 0.3% polyethyleneimine using ice-cold buffer. Test compounds (at different concentrations) are substituted for methiothepin. Filter-bound radioactivity is determined by scintillation spectrometry on a beta counter. The data are analyzed using a non-linear, iterative curve-fitting computer program [Trends Pharmacol. Sci., 16, 413 (1995)] to determine the compound affinity parameter.

[5] = rabbits; Osborne et al. 1996; cited from earlier work
[6] = A7r5 cells, Ca2+ mobilization, read-out: FLIPR 5-HT2a EC50
[7] = A7r5 cells, percentage of maximum 5-HT-induced response

T1 sequence (P14842 whole entry): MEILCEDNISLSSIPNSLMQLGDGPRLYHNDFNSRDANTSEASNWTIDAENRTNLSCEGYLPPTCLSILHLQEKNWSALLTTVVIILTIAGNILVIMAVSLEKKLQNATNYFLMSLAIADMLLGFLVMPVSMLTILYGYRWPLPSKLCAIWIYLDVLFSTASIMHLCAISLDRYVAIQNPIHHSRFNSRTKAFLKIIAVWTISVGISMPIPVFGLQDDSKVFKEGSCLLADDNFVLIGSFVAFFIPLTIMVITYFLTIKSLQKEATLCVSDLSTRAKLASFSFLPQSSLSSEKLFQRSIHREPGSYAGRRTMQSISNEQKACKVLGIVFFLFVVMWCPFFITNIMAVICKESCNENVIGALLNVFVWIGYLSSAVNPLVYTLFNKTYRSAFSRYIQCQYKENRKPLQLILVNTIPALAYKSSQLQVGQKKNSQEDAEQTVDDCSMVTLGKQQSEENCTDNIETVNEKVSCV
T2 sequence (P14842 whole entry): as above

Molecule | Emax [2, 7] | EC50 [2] | also measured
COc1ccccc1N1CCN(CCCNc2c(C)c(=O)n(C)c(=O)n2C)CC1 [5-methylurapidil] | – | – | effect on IOP [1]: lowers IOP
COc1cc(C(O)C(C)N)c(OC)c2ccccc12 (centres unmarked) [Example 2, 2-Amino-1-(1,4-dimethoxy-naphthalen-2-yl)-propan-1-ol hydrochloride] | 26.9% | – | EC50 [2, 6]: 1490 nM; EC50 [3]: 6810 nM; Emax ([3]; A7R5, read-out: Efficacy (Emax, %)): 113%
COc1cc(CC(C)N)c(OC)c2ccccc12 (centres unmarked) [Example 1, 2-(1,4-Dimethoxy-naphthalen-2-yl)-1-methylethylamine hydrochloride] | 46.5% | 188 nM | EC50 [3]: 238 nM; Emax ([3]; A7R5; read-out: Efficacy (Emax, %)): 118%
COc1ccc(OC)c2cc(CC(C)N)ccc12 (centres unmarked) [Example 8, 2-(5,8-dimethoxy-naphthalen-2-yl)-1-methylethylamine hydrochloride] | 2.6% | – | –
COc1c(CC(C)N)cc(Br)c2ccccc12 (centres unmarked) [Example 5, 2-(4-Bromo-1-methoxy-naphthalen-2-yl)-1-methylethylamine hydrochloride] | 38.9% | 1120 nM | –
CC(N)Cc1ccc2ccccc2c1 (centres unmarked) [Example 10, 2-(naphthalen-2-yl)-1-methylethylamine hydrochloride] | 20.4% | – | –
COc1cc(C(=O)C(C)N)c(OC)c2ccccc12 (centres unmarked) [Example 9, 2-amino-1-(1,4-dimethoxy-naphthalen-2-yl)-propan-1-one hydrochloride] | 21.8% | – | –
COc1cc(CC(C)N)cc2ccccc12 (centres unmarked) [Example 11, 2-(4-methoxy-naphthalen-2-yl)-1-methylethylamine hydrochloride] | 46.4% | 612 nM | –
2-amino-1-(3,8-dimethoxy-naphthalen-2-yl)-propan-1-ol hydrochloride [Example 6] | – | – | IC50 [4]: 4.92 nM; FLIPR 5-HT2a % Emax A7r5 Ca + 2 [2, 7]: 17.8%
COc1c(CC(C)N)ccc2ccccc12 (centres unmarked) [Example 4, 2-(1-Methoxy-naphthalen-2-yl)-1-methylethylamine hydrochloride] | 28.9% | 580 nM | –
CC(N)Cc1ccc2ccccc2c1O (centres unmarked) [Example 7, 2-(1-hydroxy-naphthalen-2-yl)-1-methylethylamine hydrochloride] | 17.3% | – | –
COc1cc([C@H](O)[C@@H](C)N)c(OC)c2ccccc12 [Example 3, (1S,2R)-2-Amino-1-(1,4-dimethoxy-naphthalen-2-yl)-propan-1-ol hydrochloride] | 28.4% | – | EC50 [2, 6]: 1410 nM
CCCN(CCC)C1CCc2cccc(O)c2C1 (centres unmarked) [Example 8-OH-DPAT, 8-hydroxydipropylaminotetralin] | – | – | effect on IOP [5]: reduces IOP
COc1cc(CC(C)N)c(Br)c2ccccc12 (centres unmarked) [Example 12, 2-(1-Bromo-4-methoxy-naphthalen-2-yl)-1-methylethylamine hydrochloride] | 37.4% | 911 nM | –
